Measured values reported in EP0900211B1 (PHARMACIA & UPJOHN COMPANY, priority 1996, dated 1997).

Molecular target: Stromelysin (Homo sapiens, UniProt P08254)
Experiment: MMP inhibition, particle concentration fluorescence assay
Format: biochemical
Details: in vitro; fluorescein/biotin substrate; MMP buffer pH 7.5; room temperature
Procedure: Inhibitory activity is evaluated in one or more of the MMP enzymes (stromelysin, gelatinase, and collagenase) in vitro using particle concentration fluorescence assay. An inhibitor binds to MMP enzymes which prevents the degradation of a substrate by stromelysin, gelatinase, or collagenase. The substrate has attached to it a fluorescein and a biotin moiety. The intact substrate then binds to an avidin-coated particle via the biotin moiety. Once the particle is washed and dried, a fluorescent signal is generated since the fluorescent group is attached to the particle. Without an inhibitor present, the substrate is degraded by MMP enzymes and the fluorescein group is removed, therefore, no fluorescent signal can be detected. Testing compounds are dissolved in DMSO to the desired concentration, then the solutions are diluted to 1:5 with MMP buffer (50 mM Tris-HCl, pH 7.5; 150 mM NaCl; 0.02% NaN3). Serial two-fold dilutions of each compound are prepared. A concentrated, activated enzyme solution is transferred into each plate of the testing compounds, and the mixture is incubated at room temperature for 15 minutes. […] At this point, the substrate mixture is mixed with 0.1% avidin-coated polystyrene particles. After 15 minutes, the fluorescence values are measured following filtration and washing of the beads. Ki values are then calculated.

Stromelysin, sequence (P08254 100-477): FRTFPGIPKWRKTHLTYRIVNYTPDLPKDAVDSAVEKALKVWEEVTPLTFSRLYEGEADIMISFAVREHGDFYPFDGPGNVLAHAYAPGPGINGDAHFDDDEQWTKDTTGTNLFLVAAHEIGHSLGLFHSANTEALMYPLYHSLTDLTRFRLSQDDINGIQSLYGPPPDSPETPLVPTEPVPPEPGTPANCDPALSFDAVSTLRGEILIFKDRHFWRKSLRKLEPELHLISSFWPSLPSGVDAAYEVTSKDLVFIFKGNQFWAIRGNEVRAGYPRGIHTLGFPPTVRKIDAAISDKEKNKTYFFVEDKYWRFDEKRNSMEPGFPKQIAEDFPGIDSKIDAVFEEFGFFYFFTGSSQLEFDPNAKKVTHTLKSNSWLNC

Ki	Structure (SMILES)
9.56 µM	COC(=O)[C@@H](NC(=O)Nc1n[nH]c(=S)s1)[C@@H](C)OCc1ccccc1 [Example 64, N-[[(4,5-Dihydro-5-thioxo-1,3,4-thiadiazol-2-yl)amino]carbonyl]-O-(phenylmethyl)-L-threonine methyl ester]
2.55 µM	COC(=O)[C@H](CSCc1ccc(C)cc1)NC(=O)Nc1n[nH]c(=S)s1 [Example 65, N-[[(4,5-Dihydro-5-thioxo-1,3,4-thiadiazol-2-yl)amino]carbonyl]-S-[(4-methylphenyl)methyl]-L-cysteine methyl ester]
2.05 µM	COC(=O)[C@H](CSCc1ccc(OC)cc1)NC(=O)Nc1n[nH]c(=S)s1 [Example 68, N-[[(4,5-Dihydro-5-thioxo-1,3,4-thiadiazol-2-yl)amino]carbonyl]-S-[(4-methoxyphenyl)methyl]-L-cysteine methyl ester]
1.2 µM	CNC(=O)[C@H](CSCc1ccc(C)cc1)NC(=O)Nc1n[nH]c(=S)s1 [Example 70, 2-[[[(4,5-Dihydro-5-thioxo-1,3,4-thiadiazol-2-yl)amino]-carbonyl]amino]-N-methyl-3-[[(4-methylphenyl)methyl]thio]-(R)-propanamide]
2.51 µM	COC(=O)[C@H](CSCc1ccccc1)NC(=O)Nc1n[nH]c(=S)s1 [Example 71, N-[[(4,5-Dihydro-5-thioxo-1,3,4-thiadiazol-2-yl)amino]carbonyl]-S-(phenylmethyl)-L-cysteine methyl ester]
1.05 µM	CNC(=O)[C@H](CSCc1ccccc1)NC(=O)Nc1n[nH]c(=S)s1 [Example 72, 2-[[[(4,5-Dihydro-5-thioxo-1,3,4-thiadiazol-2-yl)amino]carbonyl]-amino]-N-methyl-3-[(phenylmethyl)thio]-(R)-propanamide]
1.6 µM	CNC(=O)[C@H](COC(C)(C)C)NC(=O)Nc1n[nH]c(=S)s1 [Example 73, 2-[[[(4,5-Dihydro-5-thioxo-1,3,4-thiadiazol-2-yl)amino]carbonyl]-amino]-3-(1,1-dimethylethoxy)-N-methyl-(S)-propanamide]
3.02 µM	COC(=O)[C@H](Cc1ccc(-c2ccccc2)cc1)NC(=O)Nc1n[nH]c(=S)s1 [Example 78, α-[[[(4,5-Dihydro-5-thioxo-1,3,4-thiadiazol-2-yl)amino]carbonyl]amino]-(S)-(1,1'-biphenyl)-4-propanoic acid methyl ester]
7.39 µM	CNC(=O)[C@H](Cc1ccc(-c2ccccc2)cc1)NC(=O)Nc1n[nH]c(=S)s1 [Example 79, α-[[[(4,5-Dihydro-5-thioxo-1,3,4-thiadiazol-2-yl)amino]carbonyl]amino]-N-methyl-(S)-(1,1'-biphenyl)-4-propanamide]
0.8 µM	COC(=O)[C@H](Cc1ccc(C(C)(C)C)cc1)NC(=O)Nc1n[nH]c(=S)s1 [Example 80, N-[[(4,5-Dihydro-5-thioxo-1,3,4-thiadiazol-2-yl)amino]carbonyl]-4-(1,1-dimethylethyl)-L-phenylalanine methyl ester]
1.82 µM	CNC(=O)[C@H](Cc1ccc(C(C)(C)C)cc1)NC(=O)Nc1n[nH]c(=S)s1 [Example 81, α-[[[(4,5-dihydro-5-thioxo-1,3,4-thiadiazol-2-yl)amino]carbonyl]amino]-4-(1,1-dimethylethyl)-N-methyl-(S)-benzenepropanamide]

Structure (SMILES)	Ki
COC(=O)[C@@H](NC(=O)Nc1n[nH]c(=S)s1)[C@@H](C)OC(C)(C)C [Example 74]	1.87 µM
